What was measured:
Assay type in all cases: biochemical
[1] = target: T1, delta receptors, mouse brain membranes (Mus musculus, UniProt P32300); assay: GTP[γ]35S binding functional assay, homogenised mouse brain; conditions: mouse brain homogenate, read-out: MOUSE BRAIN % E Max
T1 construct: from tissue; host or cells: mouse brain homogenate
Protocol: (§1) B. Mouse and rat brains were weighed and rinsed in ice-cold PBS (containing 2.5 mM EDTA, pH 7.4). The brains were homogenized with a polytron for 15 sec (mouse) or 30 sec (rat) in ice-cold lysis buffer (50 mM Tris, pH 7.0, 2.5 mM EDTA, with phenylmethylsulfonyl fluoride added just prior use to […] from a 0.5M stock in DMSO:ethanol).
(§2) The agonist activity of the compounds is measured by determining the degree to which the compounds receptor complex activates the binding of GTP to G-proteins to which the receptors are coupled. In the GTP binding assay, GTP[γ]^35S is combined with test compounds and membranes from HEK-293S cells expressing the cloned human opioid receptors or from homogenised rat and mouse brain. Agonists stimulate GTP[γ]^35S binding in these membranes. The EC50 and Emax values of compounds are determined from dose-response curves. Right shifts of the dose response curve by the delta antagonist naltrindole are performed to verify that agonist activity is mediated through delta receptors.

[2] = target: T2, delta receptors, rat brain membranes (Rattus norvegicus, UniProt P33533); assay: GTP[γ]35S binding functional assay, homogenised rat brain; conditions: rat brain homogenate, read-out: RAT BRAIN % E Max
T2 construct: from tissue; host or cells: rat brain homogenate
Protocol: as §1, §2

[3] = target: T3, cloned human δ receptor (HDELTA) (Homo sapiens, UniProt P41143); assay: GTP[γ]35S binding functional assay, membranes from HEK-293S cells expressing cloned human opioid receptors; conditions: HEK-293S membranes, read-out: HDELTA % E Max
T3 construct: expressed in transfected cells; host or cells: human 293S (HEK-293S) cells, geneticin-selected
Protocol: A. Human 293S cells expressing cloned human μ, δ, and κ receptors and neomycin resistance were grown in suspension at 37° C. and 5% CO2 in shaker flasks containing calcium-free DMEM10% FBS, 5% BCS, 0.1% Pluronic F-68, and 600 μg/ml geneticin.
Cells were pelleted and resuspended in lysis buffer (50 mM Tris, pH 7.0, 2.5 mM EDTA, with PMSF added just prior to use to 0.1 mM from a 0.1 M stock in ethanol), incubated on ice for 15 min, then homogenized with a polytron for 30 sec. The suspension was spun at 1,000 g (max) for 10 min at 4° C. The supernatant was saved on ice and the pellets resuspended and spun as before. The supernatants from both spins were combined and spun at 46,000 g(max) for 30 min. The pellets were resuspended in cold Tris buffer (50 mM Tris/Cl, pH 7.0) and spun again. The final pellets were resuspended in membrane buffer (50 mM Tris, 0.32 M sucrose, pH 7.0). Aliquots (1 ml) in polypropylene tubes were frozen in dry ice/ethanol and stored at −70° C. until use. The protein concentrations were determined by a modified Lowry assay with SDS.
as §2

T2 sequence (P33533 whole entry): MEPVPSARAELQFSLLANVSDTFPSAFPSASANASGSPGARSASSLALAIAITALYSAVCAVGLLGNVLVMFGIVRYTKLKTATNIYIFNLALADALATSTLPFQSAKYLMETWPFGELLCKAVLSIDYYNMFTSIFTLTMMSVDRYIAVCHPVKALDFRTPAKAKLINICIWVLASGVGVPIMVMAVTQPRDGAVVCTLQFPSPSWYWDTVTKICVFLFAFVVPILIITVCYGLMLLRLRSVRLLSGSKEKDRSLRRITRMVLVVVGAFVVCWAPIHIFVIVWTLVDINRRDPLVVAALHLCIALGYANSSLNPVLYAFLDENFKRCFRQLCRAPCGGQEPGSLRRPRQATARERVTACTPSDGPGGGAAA
T3 sequence (P41143 whole entry): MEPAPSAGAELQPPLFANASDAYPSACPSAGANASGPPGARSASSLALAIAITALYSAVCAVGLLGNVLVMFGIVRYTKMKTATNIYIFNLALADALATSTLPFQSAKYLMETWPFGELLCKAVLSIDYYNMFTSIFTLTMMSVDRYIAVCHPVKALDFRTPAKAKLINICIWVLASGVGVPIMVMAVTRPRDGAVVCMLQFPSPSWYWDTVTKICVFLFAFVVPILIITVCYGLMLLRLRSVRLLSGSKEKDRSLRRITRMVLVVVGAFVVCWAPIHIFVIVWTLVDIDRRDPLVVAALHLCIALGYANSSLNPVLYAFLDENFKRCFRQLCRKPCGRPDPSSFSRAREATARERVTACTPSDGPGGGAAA
T1 sequence (P32300 whole entry): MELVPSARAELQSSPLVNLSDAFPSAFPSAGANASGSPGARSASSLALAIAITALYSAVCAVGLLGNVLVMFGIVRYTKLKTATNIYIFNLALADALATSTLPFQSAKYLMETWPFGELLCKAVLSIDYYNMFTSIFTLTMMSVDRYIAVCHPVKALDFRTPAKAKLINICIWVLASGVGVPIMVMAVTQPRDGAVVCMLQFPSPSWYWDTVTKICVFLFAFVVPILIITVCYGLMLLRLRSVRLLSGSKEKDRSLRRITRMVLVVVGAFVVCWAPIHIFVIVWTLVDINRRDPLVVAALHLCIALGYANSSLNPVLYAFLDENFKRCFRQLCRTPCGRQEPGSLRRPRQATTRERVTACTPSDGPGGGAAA

| SMILES | Emax [1] | Emax [2] | Emax [3] |
| --- | --- | --- | --- |
| CCN(CC)C(=O)c1ccc(C(=C2CCN(Cc3ccccc3)CC2)c2cccc(O)c2)cc1 [Example 2, N,N-diethyl-4-(3-hydroxylphenyl-N-benzyl-piperidin-4-ylidene-methyl)-benzamide] | 104% | 112% | 104% |
| CCN(CC)C(=O)c1ccc(C(=C2CCN(Cc3cccs3)CC2)c2cccc(O)c2)cc1 [Example 3, N,N-diethyl-4-{(3-hydroxyphenyl)[1-(2-thienylmethyl)-4-piperidinylidene]methyl}benzamide] | 186% | 168% | 98.2% |
| CCN(CC)C(=O)c1ccc(C(=C2CCN(Cc3ccco3)CC2)c2cccc(O)c2)cc1 [Example 5, N,N-diethyl-4-[[1-(2-furylmethyl)-4-piperidinylidene](3-hydroxyphenyl)methyl]benzamide] | 134% | 132% | 94.8% |
| CCN(CC)C(=O)c1ccc(C(=C2CCN(Cc3ccccn3)CC2)c2cccc(O)c2)cc1 [Example 7, N,N-diethyl-4-{(3-hydroxyphenyl)[1-(2-pyridinylmethyl)-4-piperidinylidene]methyl}benzamide] | 138% | 135% | 103% |
| CCN(CC)C(=O)c1ccc(C(=C2CCN(Cc3ccncc3)CC2)c2cccc(O)c2)cc1 [Example 8, N,N-diethyl-4-{(3-hydroxyphenyl)[1-(4-pyridinylmethyl)-4-piperidinylidene]methyl}benzamide] | 78.2% | 81.4% | 112% |
| CCN(CC)C(=O)c1ccc(C(=C2CCN(Cc3ncc[nH]3)CC2)c2cccc(O)c2)cc1 [Example 9, N,N-diethyl-4-{(3-hydroxyphenyl)[1-(1H-imidazol-2-ylmethyl)-4-piperidinylidene]methyl}benzamide] | 136% | 151% | 106% |
| CCN(CC)C(=O)c1ccc(C(=C2CCN(Cc3c[nH]cn3)CC2)c2cccc(O)c2)cc1 [Example 10, N,N-diethyl-4-{(3-hydroxyphenyl)[1-(1H-imidazol-4-ylmethyl)-4-piperidinylidene]methyl}benzamide] | 104% | 102% | 107% |
| CCN(CC)C(=O)c1ccc(C(=C2CCN(Cc3nccs3)CC2)c2cccc(O)c2)cc1 [Example 11, N,N-diethyl-4-{(3-hydroxyphenyl)[1-(1,3-thiazol-2-ylmethyl)-4-piperidinylidene]methyl}benzamide] | 118% | 120% | 115% |
